Assays:
Type in all cases: in vivo
Conditions in all cases: in vivo
Plutella xylostella = experiment: Insecticidal activities to diamondback moth, feeding dipped leaves
Summary of the method: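 Leaf-dip feeding assay: fresh cabbage leaves dipped 3 s in test solution, air-dried and fed to Plutella xylostella, 10 insects per treatment, three replicates, water control. Deaths counted after 24 h; mortality corrected against survival in the control group.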

Aphis craccivoral = experiment: Insecticidal activities to aphids, immersion method
Summary of the method: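 Wingless adult aphids feeding on bean sprouts were dipped 5 s in 500 ppm compound (DMF stock diluted in 0.2 mL/L aqueous Triton X-100), blotted and held at 23° C. Dead counted at 24 h, three replicates; mortality corrected against Triton-only controls.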

[1] = tested on: Pseudaletia separate Walker; experiment: Insecticidal activities to armyworm, leaf dipping and feeding
Summary of the method: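 Maize leaves dipped 3 s in acetone-formulated compound at 500 down to 1.57 ppm, dried and fed to armyworms, 10 insects per treatment in triplicate, aqueous acetone as control. Mortality was counted after 24 hours and corrected against control survival.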

Nilaparvata lugens = experiment: Insecticidal activities to plant hopper, spraying method
Summary of the method: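 Nilaparvata lugens, 10 insects per tumbler, sprayed with 2 ml compound in acetone at 0.79-500 ppm, three replicates, aqueous acetone control. Dead insects counted after 24 h; mortality corrected against control survival.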

CC[N+]1=C(C(=Cc2ccc(Cl)o2)[N+](=O)[O-])N(Cc2ccc(Cl)nc2)CC1.[Cl-] [Compound 288]
100%: Plutella xylostella Mortality (%) 500 ppm (Plutella xylostella) | Aphis craccivoral Mortality (%) 500 ppm (Aphis craccivoral) | Pseudaletia separate Walker Mortality (%) 500 ppm [1] | Nilaparvata lugens Mortality (%) 500 ppm (Nilaparvata lugens)

CC[N+]1=C(C(=Cc2ccc(Br)o2)[N+](=O)[O-])N(Cc2ccc(Cl)nc2)CC1.[Cl-] [Compound 289]
100%: Plutella xylostella Mortality (%) 500 ppm (Plutella xylostella) | Aphis craccivoral Mortality (%) 500 ppm (Aphis craccivoral) | Pseudaletia separate Walker Mortality (%) 500 ppm [1] | Nilaparvata lugens Mortality (%) 500 ppm (Nilaparvata lugens)

CC[N+]1=C(C(=Cc2cccs2)[N+](=O)[O-])N(Cc2ccc(Cl)nc2)CC1.[Cl-] [Compound 291]
100%: Plutella xylostella Mortality (%) 500 ppm (Plutella xylostella) | Aphis craccivoral Mortality (%) 500 ppm (Aphis craccivoral) | Pseudaletia separate Walker Mortality (%) 500 ppm [1] | Nilaparvata lugens Mortality (%) 500 ppm (Nilaparvata lugens)

CC[N+]1=C(C(=Cc2ccsc2)[N+](=O)[O-])N(Cc2ccc(Cl)nc2)CC1.[Cl-] [Compound 292]
100%: Plutella xylostella Mortality (%) 500 ppm (Plutella xylostella) | Aphis craccivoral Mortality (%) 500 ppm (Aphis craccivoral) | Pseudaletia separate Walker Mortality (%) 500 ppm [1] | Nilaparvata lugens Mortality (%) 500 ppm (Nilaparvata lugens)

CC[N+]1=C(C(=Cc2ccc([N+](=O)[O-])s2)[N+](=O)[O-])N(Cc2ccc(Cl)nc2)CC1.[Cl-] [Compound 293]
100%: Plutella xylostella Mortality (%) 500 ppm (Plutella xylostella) | Aphis craccivoral Mortality (%) 500 ppm (Aphis craccivoral) | Pseudaletia separate Walker Mortality (%) 500 ppm [1] | Nilaparvata lugens Mortality (%) 500 ppm (Nilaparvata lugens)

CC[N+]1=C(C(=Cc2ccc(Cl)s2)[N+](=O)[O-])N(Cc2ccc(Cl)nc2)CC1.[Cl-] [Compound 294]
100%: Plutella xylostella Mortality (%) 500 ppm (Plutella xylostella) | Aphis craccivoral Mortality (%) 500 ppm (Aphis craccivoral) | Pseudaletia separate Walker Mortality (%) 500 ppm [1] | Nilaparvata lugens Mortality (%) 500 ppm (Nilaparvata lugens)

CC[N+]1=C(/C(=C\c2ccc[nH]2)[N+](=O)[O-])N(Cc2ccc(Cl)nc2)CC1.[Cl-] [Compound 295]
100%: Plutella xylostella Mortality (%) 500 ppm (Plutella xylostella) | Aphis craccivoral Mortality (%) 500 ppm (Aphis craccivoral) | Pseudaletia separate Walker Mortality (%) 500 ppm [1] | Nilaparvata lugens Mortality (%) 500 ppm (Nilaparvata lugens)

— patent publication US8232407B2, “Nitrogenous heterocyclic compounds with insecticidal activity, and the preparation and use thereof” (East China University of Science and Technology, priority 2008, dated 2012)
